For orientation: IC50 means the point on the concentration scale where inhibition reaches its midpoint. High values mean a need for much substance, low ones inhibition by little substance.

Structures are written as SMILES.

Sequence of human PDGFRβ (P09619 561-1106): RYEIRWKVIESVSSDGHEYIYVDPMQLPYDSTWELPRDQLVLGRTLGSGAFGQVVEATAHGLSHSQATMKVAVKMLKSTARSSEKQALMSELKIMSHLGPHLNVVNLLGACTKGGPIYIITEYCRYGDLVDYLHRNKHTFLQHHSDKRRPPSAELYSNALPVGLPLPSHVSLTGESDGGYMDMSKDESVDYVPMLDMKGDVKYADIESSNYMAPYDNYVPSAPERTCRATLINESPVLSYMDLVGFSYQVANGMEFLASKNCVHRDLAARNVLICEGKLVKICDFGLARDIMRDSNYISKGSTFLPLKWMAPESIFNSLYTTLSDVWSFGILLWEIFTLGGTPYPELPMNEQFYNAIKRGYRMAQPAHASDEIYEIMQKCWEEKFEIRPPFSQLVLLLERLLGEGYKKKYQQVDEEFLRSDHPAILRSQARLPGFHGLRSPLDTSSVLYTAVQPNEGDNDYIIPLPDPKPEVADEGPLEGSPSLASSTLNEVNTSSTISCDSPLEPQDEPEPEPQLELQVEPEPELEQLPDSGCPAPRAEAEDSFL

The test deals with human PDGFRβ (Homo sapiens (Human), UniProt P09619). The test is described as follows: PDGFRβ kinase assay (PDGFRβ-HTRF). Format: biochemical. Particulars: 10 μM ATP; some mean values from multiple determinations. The method in brief:
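GST-fused human PDGFRβ fragment (R561-L1106) from Sf9 cells was preincubated 15 min with compound in 50 mM HEPES pH 7.5, 10 mM MgCl2, 2.5 mM DTT, 0.01% Triton X-100; substrate was biotinylated poly-Glu,Tyr (4:1).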
Background: In TR-FRET formats the signal depends on donor and acceptor labels being close together.
As for `CCCOC1CCCN(Cc2ccc3c(c2)NC(=O)c2c(Nc4cc(O)c(C)cc4F)ccnc2N3)C1` (racemic) [Example 68, rac-4-[(2-Fluoro-5-hydroxy-4-methylphenyl)amino]-8-[(3-propoxypiperidin-1-yl)methyl]-6,11-dihydro-5H-pyrido[2,3-b][1,5]benzodiazepin-5-one], the IC50 turned out to be 1.85 nM. In the case of `Cc1cc(F)c(Nc2ccnc3c2C(=O)Nc2cc(CN[C@@H](CO)Cc4cnc[nH]4)ccc2N3)cc1O` [Example 184, 4-[(2-Fluoro-5-hydroxy-4-methylphenyl)amino]-8-({[(2R)-1-hydroxy-3-(1H-imidazol-5-yl)propan-2-yl]amino}methyl)-6,11-dihydro-5H-pyrido[2,3-b][1,5]benzodiazepin-5-one] it was 1.62 nM. In the case of `Cc1ccc(O)cc1Nc1ccnc2c1C(=O)Nc1cc(CNCc3cccc(F)c3)ccc1N2` [Example 120] it was 1.49 nM; in that of `CCCCNCc1ccc2c(c1)NC(=O)c1c(Nc3cc(O)ccc3C)ccnc1N2` [Example 23, 8-[(Butylamino)methyl]-4-[(5-hydroxy-2-methylphenyl)amino]-6,11-dihydro-5H-pyrido[2,3-b][1,5]benzodiazepin-5-one], 2.98 nM; in that of `N#Cc1ccc2c(c1)NC(=O)c1c(Nc3cc(O)ccc3Cl)ccnc1N2` [Example 36, 4-[(2-Chloro-5-hydroxyphenyl)amino]-5-oxo-6,11-dihydro-5H-pyrido[2,3-b][1,5]benzodiazepine-8-carbonitrile], 20.1 nM. In the case of `CCN1CCCC1CNCc1ccc2c(c1)NC(=O)c1c(Nc3cc(O)ccc3C)ccnc1N2` (centres unmarked) [Example 92, 8-({[(1-Ethylpyrrolidin-2-yl)methyl]amino}methyl)-4-[(5-hydroxy-2-methylphenyl)amino]-6,11-dihydro-5H-pyrido[2,3-b][1,5]benzodiazepin-5-one] it was 5.27 nM; in that of `Cc1ccc(O)cc1Nc1ccnc2c1C(=O)Nc1cc(CNCCn3ccnn3)ccc1N2` [Example 97], 2.45 nM; in that of `Cc1ccc(O)cc1Nc1ccnc2c1C(=O)Nc1cc(CNCc3ccc(F)cc3)ccc1N2` [Example 119], 1.92 nM. In turn, `CCC(CC)CNCc1ccc2c(c1)NC(=O)c1c(Nc3cc(O)ccc3C)ccnc1N2` [Example 93] displayed an IC50 of 4.98 nM. In the case of `Cc1ccc(O)cc1Nc1ccnc2c1C(=O)Nc1cc(CNC(C)C(C)C)ccc1N2` (centres unmarked) [Example 157] it was 3.4 nM; in that of `COc1cc(O)cc(Nc2ccnc3c2C(=O)Nc2cc(C#N)ccc2N3)c1` [Example 9, 4-[(3-Hydroxy-5-methoxyphenyl)amino]-5-oxo-6,11-dihydro-5H-pyrido[2,3-b][1,5]benzodiazepine-8-carbonitrile], 3.83 nM. In the case of `Cc1ccc(O)cc1Nc1ccnc2c1C(=O)Nc1cc(CN[C@H](C)C3CCCCC3)ccc1N2` [Example 102] it was 1.57 nM.

For the compound `Cc1cc(F)c(Nc2ccnc3c2C(=O)Nc2cc(CNC[C@@H]4CCN(C(=O)OC(C)(C)C)C[C@H]4O)ccc2N3)cc1O` [Example 176, tert-Butyl (3S,4S)-4-{[({4-[(2-fluoro-5-hydroxy-4-methylphenyl)amino]-5-oxo-6,11-dihydro-5H-pyrido[2,3-b][1,5]benzodiazepin-8-yl}methyl)amino]methyl}-3-hydroxypiperidine-1-carboxylate], inhibition was half-maximal at 3.45 nM (IC50).

In turn, `Cc1cc(F)c(Nc2ccnc3c2C(=O)Nc2cc(CN)ccc2N3)cc1O` [Example 87, 8-(Aminomethyl)-4-[(2-fluoro-5-hydroxy-4-methylphenyl)amino]-6,11-dihydro-5H-pyrido[2,3-b][1,5]benzodiazepin-5-one] gave an IC50 of 1.41 nM. As for `CCCNCc1ccc2c(c1)NC(=O)c1c(Nc3cc(O)ccc3C)ccnc1N2` [Example 125], the IC50 came out at 1.97 nM.

For the compound `Cc1ccc(O)cc1Nc1ccnc2c1C(=O)Nc1cc(C#N)ccc1N2` [Example 1, 4-[(5-Hydroxy-2-methylphenyl)amino]-5-oxo-6,11-dihydro-5H-pyrido[2,3-b][1,5]benzodiazepine-8-carbonitrile], the IC50 was 5.43 nM. In the case of `Cc1ccc(O)cc1Nc1ccnc2c1C(=O)Nc1cc(CNC(C)(C)CN3CCCC3)ccc1N2` [Example 131] it was 2.05 nM; in that of `Cc1ccc(O)cc1Nc1ccnc2c1C(=O)Nc1cc(CNC3CCCNC3=O)ccc1N2` (centres unmarked) [Example 139], 3.58 nM; in that of `Cc1ccc(O)cc1Nc1ccnc2c1C(=O)Nc1cc(CNCCF)ccc1N2` [Example 126], 2.24 nM. In the case of `Cc1ccc(O)cc1Nc1ccnc2c1C(=O)Nc1cc(CNCCOCC3CCCO3)ccc1N2` (centres unmarked) [Example 133] it was 7.53 nM; in that of `CCN(CCN(C)C)Cc1ccc2c(c1)NC(=O)c1c(Nc3cc(O)c(C)cc3F)ccnc1N2` [Example 199, 8-({[2-(Dimethylamino)ethyl](ethyl)amino}methyl)-4-[(2-fluoro-5-hydroxy-4-methylphenyl)amino]-6,11-dihydro-5H-pyrido[2,3-b][1,5]benzodiazepin-5-one], 1.31 nM; in that of `Cc1cc(F)c(Nc2ccnc3c2C(=O)Nc2cc(CNC(C)C4CCCCC4)ccc2N3)cc1O` (racemic) [Example 77, rac-8-{[(1-Cyclohexylethyl)amino]methyl}-4-[(2-fluoro-5-hydroxy-4-methylphenyl)amino]-6,11-dihydro-5H-pyrido[2,3-b][1,5]benzodiazepin-5-one], 4.9 nM. In the case of `Cc1ccc(O)cc1Nc1ccnc2c1C(=O)Nc1cc(CNc3ccn(C)n3)ccc1N2` [Example 105] it was 14.6 nM; in that of `Cc1cc(F)c(Nc2ccnc3c2C(=O)Nc2cc(C(=O)N4CCCC(CCO)C4)ccc2N3)cc1O` (racemic) [Example 179, rac-4-[(2-Fluoro-5-hydroxy-4-methylphenyl)amino]-8-{[3-(2-hydroxyethyl)piperidin-1-yl]carbonyl}-6,11-dihydro-5H-pyrido[2,3-b][1,5]benzodiazepin-5-one], 14.6 nM; in that of `Cc1cc(F)c(Nc2ccnc3c2C(=O)Nc2cc(CNC4CC(F)(F)C4)ccc2N3)cc1O` [Example 189, 8-{[(3,3-Difluorocyclobutyl)amino]methyl}-4-[(2-fluoro-5-hydroxy-4-methylphenyl)amino]-6,11-dihydro-5H-pyrido[2,3-b][1,5]benzodiazepin-5-one], 2.01 nM. In turn, `CNCc1ccc2c(c1)NC(=O)c1c(Nc3cc(O)ccc3C)ccnc1N2` [Example 22, 4-[(5-Hydroxy-2-methylphenyl)amino]-8-[(methylamino)methyl]-6,11-dihydro-5H-pyrido[2,3-b][1,5]benzodiazepin-5-one] had an IC50 of 2.84 nM. Compound `Cc1cc(F)c(Nc2ccnc3c2C(=O)Nc2cc(CNCCc4ccncc4)ccc2N3)cc1O` [Example 74, 4-[(2-Fluoro-5-hydroxy-4-methylphenyl)amino]-8-({[2-(pyridin-4-yl)ethyl]amino}methyl)-6,11-dihydro-5H-pyrido[2,3-b][1,5]benzodiazepin-5-one] showed an IC50 of 0.475 nM. `Cc1cc(F)c(Nc2ccnc3c2C(=O)Nc2cc(CNC4CCC4)ccc2N3)cc1O` [Example 188, 8-[(Cyclobutylamino)methyl]-4-[(2-fluoro-5-hydroxy-4-methylphenyl)amino]-6,11-dihydro-5H-pyrido[2,3-b][1,5]benzodiazepin-5-one] yielded an IC50 of 1.75 nM.

In the case of `Cc1cc(F)c(Nc2ccnc3c2C(=O)Nc2cc(CN4CCC5(O)CCCCC5C4)ccc2N3)cc1O` (centres unmarked) [Example 183, 4-[(2-Fluoro-5-hydroxy-4-methylphenyl)amino]-8-[(4a-hydroxyoctahydroisoquinolin-2(1H)-yl)methyl]-6,11-dihydro-5H-pyrido[2,3-b][1,5]benzodiazepin-5-one], inhibition was half-maximal at 1.2 nM (IC50). In the case of `CCN(CC)C(=O)c1ccc2c(c1)NC(=O)c1c(Nc3cc(O)c(C)cc3F)ccnc1N2` [Example 84, N,N-Diethyl-4-[(2-fluoro-5-hydroxy-4-methylphenyl)amino]-5-oxo-6,11-dihydro-5H-pyrido[2,3-b][1,5]benzodiazepine-8-carboxamide] it was 14.6 nM; in that of `CCCC1CCN(Cc2ccc3c(c2)NC(=O)c2c(Nc4cc(O)c(C)cc4F)ccnc2N3)CC1` [Example 54, 4-[(2-Fluoro-5-hydroxy-4-methylphenyl)amino]-8-[(4-propylpiperidin-1-yl)methyl]-6,11-dihydro-5H-pyrido[2,3-b][1,5]benzodiazepin-5-one], 6.51 nM. In the case of `Cc1ccc(O)cc1Nc1ccnc2c1C(=O)Nc1cc(CNC(C)C3CC=CCC3)ccc1N2` (centres unmarked) [Example 100] it was 1.66 nM; in that of `Cc1cc(F)c(Nc2ccnc3c2C(=O)Nc2cc(CN(C)C)ccc2N3)cc1O` [Example 33, 8-[(Dimethylamino)methyl]-4-[(2-fluoro-5-hydroxy-4-methylphenyl)amino]-6,11-dihydro-5H-pyrido[2,3-b][1,5]benzodiazepin-5-one], 4.3 nM; in that of `Cc1ccc(O)cc1Nc1ccnc2c1C(=O)Nc1cc(CNCCc3ccncc3)ccc1N2` [Example 123], 7.14 nM. In the case of `Cc1cc(F)c(Nc2ccnc3c2C(=O)Nc2cc(C(=O)N4CCOCC4)ccc2N3)cc1O` [Example 85, 4-[(2-Fluoro-5-hydroxy-4-methylphenyl)amino]-8-(morpholin-4-ylcarbonyl)-6,11-dihydro-5H-pyrido[2,3-b][1,5]benzodiazepin-5-one], the midpoint of inhibition, the IC50, lay at 13.9 nM. In turn, `Cc1ccc(Nc2ccnc3c2C(=O)Nc2cc(C#N)ccc2N3)cc1O` [Example 3, 4-[(3-Hydroxy-4-methylphenyl)amino]-5-oxo-6,11-dihydro-5H-pyrido[2,3-b][1,5]benzodiazepine-8-carbonitrile] displayed an IC50 of 3.82 nM. In the case of `Cc1ccc(O)cc1Nc1ccnc2c1C(=O)Nc1cc(CNCC3CCC(=O)N3C)ccc1N2` (centres unmarked) [Example 137] it was 1.68 nM; in that of `CCOC(=O)[C@H]1C[C@@H](NCc2ccc3c(c2)NC(=O)c2c(Nc4cc(O)c(C)cc4F)ccnc2N3)C1` [Example 191, cis-Ethyl 3-[({4-[(2-fluoro-5-hydroxy-4-methylphenyl)amino]-5-oxo-6,11-dihydro-5H-pyrido[2,3-b][1,5]benzodiazepin-8-yl}methyl)amino]cyclobutanecarboxylate], 0.626 nM.

The record behind these values is patent US10047096B2, “Substituted pyridobenzodiazepinone-derivatives and use thereof” (Bayer Pharma Aktiengesellschaft, priority 2014, dated 2018).
